Results as given in US20050282734A1 (priority 1998, published 2005).

Assays:
[1] = Magri et al. (1988); cited from earlier work
HSA = HSA (Homo sapiens, UniProt P02768); test: Effect of antioxidants on HSA dimerization at acidic pH (SDS-PAGE, reducing and non-reducing); settings: acidification of commercial HSA to pH 3.0-3.3; compared with ascorbic acid, L-cysteine, sodium thiosulfate
Description: This experiment evaluated a number of conditions to maintain HSA in the formulation, primarily in the monomeric form.
Evaluation of different antioxidants with undefatted and defatted acidic HSA preparations. • The following reducing reagents were tested: ascorbic acid, L-cysteine, dithioerythritol (DTE) and dithiothreitol (DTT), sodium metabisulfite, sodium thiosulfate, and thioacetic acid. • Different preparations of HSA (10%), including HSA-A, HSA-B, and HSA-D, were treated with antioxidant at different concentrations, ranging from 2 to 40 mM. • The HSA solutions were incubated at 2-8° C. for up to a month, and prevention of dimerization was analyzed by SDS-PAGE under both reducing and non-reducing conditions.
Analysis of the effect of antioxidant on prevention of HSA dimerization at low pH. • 5.
3.3 Add 80 μL of antioxidant solution to the 1.92 mL of HSA-A (20%) in 2×9′ (18) the 15-mL conical tubes as follows:
• Sample 9 will be the control sample for either HSA-B or HSA-D, untreated. • 3.4 Incubate the samples at 2-8° C. for at least 4 h. • 3.5 In the meantime, • 3.5.1 Prepare material for acidification and defatting of HSA. • 3.5.2 Prepare another 2×9 (18) set of 15-mL conical centrifuge tubes (sterile). […]

[2] = target: T1, human serum albumin (HSA) (Homo sapiens, UniProt P02768); test: Recovery of soluble Ptx and binding to HSA by liquid scintillation counting (radioactive Ptx; R, S, F fractions)
T1 sequence (P02768 25-609): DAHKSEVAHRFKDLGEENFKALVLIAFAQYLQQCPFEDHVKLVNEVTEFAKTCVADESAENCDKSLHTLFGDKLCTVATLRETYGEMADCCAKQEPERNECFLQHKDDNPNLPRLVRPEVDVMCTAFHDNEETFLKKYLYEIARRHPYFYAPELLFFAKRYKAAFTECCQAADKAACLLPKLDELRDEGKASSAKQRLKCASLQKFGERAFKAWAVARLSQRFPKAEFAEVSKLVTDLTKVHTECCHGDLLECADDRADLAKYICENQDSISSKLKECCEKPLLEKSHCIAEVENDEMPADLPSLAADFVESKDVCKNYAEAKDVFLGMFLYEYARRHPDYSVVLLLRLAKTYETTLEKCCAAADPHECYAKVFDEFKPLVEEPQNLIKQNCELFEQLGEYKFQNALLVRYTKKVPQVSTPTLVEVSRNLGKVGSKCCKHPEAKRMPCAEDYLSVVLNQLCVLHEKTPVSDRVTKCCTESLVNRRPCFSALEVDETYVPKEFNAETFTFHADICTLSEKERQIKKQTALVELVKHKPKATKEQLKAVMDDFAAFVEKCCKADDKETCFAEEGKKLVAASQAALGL

[3] = Solubility of paclitaxel in aqueous ethanol saline solution (visual turbidity); assay type: physicochemical
Description: Reagents Preparation • 1. […] A 20-ml physiological saline stock solution was also prepared in a small bottle (or flask) and designated the 1× saline stock solution.
4. The tubes were incubated at room temperature and observed at 0 h, 1 h and 3 h for precipitate formation. The results were recorded as + or − turbidity formation.

[4] = target: T1, human serum albumin (HSA); test: Paclitaxel binding to HSA: ultrafiltration (10 kDa), free and total Ptx by ELISA and/or reverse-phase HPLC; design: purchased Desert Biologicals, Phoenix, Ariz; settings: pH 7.1
Description: • 1. […] Procedure • 1. […] Saline in water could also be added to the test tubes so that all the test tubes have substantially identical sodium chloride concentrations. • 3. […] The test tubes were covered with a piece of parafilm or in stoppered serum bottles and then incubated at room temperature, with occasional shaking (2 to 3 times). • 6. At 0 hr, 3 hr, and/or 18/24 hr of incubation, the samples were observed qualitatively for precipitate formation. • 7. At the end of the 18-24 hr incubation period, the reaction mixtures were analyzed for turbidity at 600 nm using a Shimadzu 160U UV/visible spectrophotometer (NBI Track #F1174). • 8. […] Analytical methods.
Procedure • 1. […] The test tubes were covered with a parafilm and then incubated at room temperature, with occasional shaking. Alternatively, the mixtures were prepared in stoppered serum vials. • 6.
This unbound fraction can be quantitated by reverse phase HPLC, and/or ELISA.

collagenase = settings: 10^−7 M paclitaxel, chondrocytes stimulated by tumor necrosis factor and interleukin-1; cited from earlier work
synoviocytes = settings: in vitro, cited from earlier work
[5] = mice, co-administered P-glycoprotein blocker; cited from earlier work

HSA, sequence (P02768 25-609): as above

Structure (SMILES): CC(=O)O[C@H]1C(=O)[C@@]2(C)[C@H]([C@H](OC(=O)c3ccccc3)[C@]3(O)C[C@H](OC(=O)[C@H](O[Si](C)(C)C(C)(C)C)[C@@H](NC(=O)c4ccccc4)c4ccccc4)C(C)=C1C3(C)C)[C@]1(OC(C)=O)CO[C@@H]1C[C@@H]2O [2′-(t-butyldimethylsilyl)taxol]
- in vivo activity compared with paclitaxel [1]: essentially inactive

Structure (SMILES): CC(=O)O[C@H]1C(=O)[C@@]2(C)[C@H]([C@H](OC(=O)c3ccccc3)[C@]3(O)C[C@H](OC(=O)[C@H](OC(=O)CCC(=O)O)[C@@H](NC(=O)c4ccccc4)c4ccccc4)C(C)=C1C3(C)C)[C@]1(OC(C)=O)CO[C@@H]1C[C@@H]2O [2′-succinyltaxol]
- in vivo activity compared with paclitaxel [1]: decreased in vivo activity

Structure (SMILES): O[C@H](CS)[C@@H](O)CS [DTE, dithioerythritol]
- effectiveness in minimizing the HSA dimerization reaction (HSA): most effective

Structure (SMILES): CC(=O)O[C@H]1C(=O)[C@@]2(C)[C@H]([C@H](OC(=O)c3ccccc3)[C@]3(O)C[C@H](OC(=O)[C@H](O)[C@@H](NC(=O)c4ccccc4)c4ccccc4)C(C)=C1C3(C)C)[C@]1(OC(C)=O)CO[C@@H]1C[C@@H]2O [Ptx, paclitaxel]
- chemical stability of Ptx in alkaline pH formulations [2]: poor
- time until paclitaxel solutions turned cloudy ([3]; 500 μg/ml paclitaxel, 20% ethanol or less, room temperature): ≤ 5 min
- paclitaxel concentration at which solutions remained clear for at least 3 hours ([3]; aqueous ethanol saline solutions, room temperature): ≤ 50 µg/mL
- paclitaxel concentration at which clear solutions were obtained ([3]; aqueous ethanol solutions (5% to 25%), after a 1-h incubation at room temperature): less than 100 μg/ml
- solubility of paclitaxel at 500 μg/ml ([3]; saline solution containing up to 25% ethanol, after 1 hr): not soluble
- recovery at 50 μg/mL ([4]; defatted human serum albumin (HSA) solution): 73%
- recovery at 50 μg/mL ([4]; non-defatted human serum albumin (HSA) solution): 89%
- reduction of collagenase expression (collagenase): over 50%
- concentration cytotoxic to the synoviocytes (synoviocytes): 10^−6 to 10^−5 M
- concentration inhibiting proliferation of synoviocytes and inducing apoptosis (synoviocytes; concentrations as low as): 10^−7 M

Structure (SMILES): C/C=C/C[C@@H](C)C(=O)[C@H]1C(=O)N[C@@H](C(C)C)C(=O)N(C)CC(=O)N(C)[C@@H](CC(C)C)C(=O)N[C@@H](C(C)C)C(=O)N(C)[C@@H](CC(C)C)C(=O)N[C@@H](C)C(=O)N[C@H](C)C(=O)N(C)[C@@H](CC(C)C)C(=O)N(C)[C@@H](CC(C)C)C(=O)N(C)[C@@H](C(C)C)C(=O)N1C [SDZ PSC 833]
- increase in oral bioavailability of paclitaxel [5]: 10 fold
